Where two headings read alike, the source gives them in different places. Ends that are not written are not given here.
What was measured:
[1] = system: Escherichia coli
Protocol: (§1) The 5 designed and synthesized peptides of the invention, plus omiganan (peptide of the state of the art) were evaluated for their antimicrobial capacity in microdilution assays for determining the minimum inhibitory concentration (MIC). A first panel of 8 representative strains was analyzed in these assays, encompassing Gram positive and Gram negative bacteria. […] The lowest MIC values indicate a higher antimicrobial potency.
(§2) Subsequently, an analysis of a panel of clinical isolates including strains with different resistance mechanisms against conventional antibiotics was carried out, all of which are of clinical relevance. […] In Table 3 the results for a panel of Gram negative bacteria are shown, and in Table 4 for a panel of […] bacteria. In these tables the detected gene/s responsible for the resistance against antibiotics for each strain, are included.
(§3) Antimicrobial activity was analyzed by means of the determination of the MIC (minimum inhibitory concentration) by the microdilution technique. The technique was carried out in the standard fashion according to (CLSI M07-A9 Vol. 32 No 2. January 2012). The peptide concentration range used was from 0.5 μg/mL to 512 μg/mL in two-fold serial dilutions. The used medium was MH Difco broth supplemented with cations, at a final concentration of Ca^++20-25 mg/L and Mg^++10-12.5 mg/L. The working inoculum used corresponds to a 1/100 dilution of a bacterial suspension equivalent to 0.5 in the Mc Farland scale.

[2] = system: Pseudomonas aeruginosa; test: MIC by broth microdilution; assay type: cell-based
Protocol: as §1, §2, §3

[3] = system: Staphylococcus aureus; test: MIC by broth microdilution; assay type: cell-based
Protocol: as §1, §2, §3

[4] = system: A. baumanii
Protocol: as §2, §3

[5] = system: E. gallinarum
Protocol: as §2, §3

[6] = system: E. raffinosus
Protocol: as §2, §3

[7] = system: S. haemolyticus
Protocol: as §2, §3

[8] = system: E. coli; assay type: cell-based
Protocol: (§4) In vitro sensitivity assay of aerobically growing bacteria, using the disc diffusion method was performed according to the standards in the M2 document of the CLSI (Clinical and Laboratory Standards Institute: Performance Standards for Antimicrobial Disk Susceptibility Tests.) using the non-amidated peptides
(§5) In brief, intermediate solutions (10×) of the antimicrobial non-amidated peptides were prepared by serial dilutions 1:2, 1:4 and 1:8 by two-fold dilutions. Then, one part of the solution of the antimicrobial peptide 10× was added to nine parts of melted bacteriological agar. The antibiotic solution was added for each dilution, in the melted agar and cooled to 45-50° C. in a water bath. Then, the agar-antibiotic mixture was placed in a Petri dish until a 3-4 mm depth was reached. The inoculum is prepared with a turbidity of 0.5 in the McFarland scale (approximately 1-2 10^8 CFU/ml). The final inoculum required for the agar dilution test is 10^4 colony forming units (CFU) per “spot” having 5-8 mm in diameter. The inoculated plates must be incubated upside down at 35° C. for a period of 16-20 hs. MIC was recorded as the value of the lower dilution completely inhibiting bacterial development, without considering the development of a single colony or a slight film caused by the inoculum deposit. The final point in these cases will correspond to the concentration at which there is more than 80% reduction in growth as compared with the control.

[9] = system: K. pneumoniae; assay type: cell-based
Protocol: as §4, §5

[10] = system: P. aeruginosa; assay type: cell-based
Protocol: as §4, §5

[11] = system: S. aureus; assay type: cell-based
Protocol: as §4, §5

[12] = system: S. cohnii; assay type: cell-based
Protocol: as §4, §5

[13] = system: S. warnerii; assay type: cell-based
Protocol: as §4, §5

[14] = system: human erythrocytes; test: Erythrocyte hemolysis assay (cytotoxicity); assay type: cell-based
Protocol: Subsequently, the capacity of the peptides of the invention for lysing human erythrocytes was evaluated, as a measure of their cytotoxicity (Table 2). The assays were carried out according to the Examples and are expressed as a percentage of total lysis obtained with either water or the surfactant Tween 20. In this assays, the lower hemolysis percentage, the lower expected cytotoxic activity.
Evaluation of cytotoxic activity was performed by means of an erythrocyte hemolysis assay (according to Pure Appl. Chem., Vol. 79, No. 4, pp. 717-728, 2007). In brief, from a volume of heparinized human whole blood, 3 times that volume of PBS is added and centrifuged 10 minutes at 1500 rpm, repeating the washing two more times. 10% blood solutions in PBS were prepared with that pellet. Subsequently, each group was added the corresponding peptide at the indicated concentration and incubated at 37° C. for 30 minutes. […]

[15] = system: S. saprophyticus
Protocol: as §2, §3

[16] = E. coli ABC11, resistance gene ctx-m-2
[17] = E. coli Cos15, resistance gene per + tem
[18] = E. coli LCA1, resistance gene ctx-m-2 + tem-1
[19] = E. coli M5306, resistance gene ctx-m-2 + tem-1 + per-2
[20] = E. coli M7859, resistance gene cit
[21] = E. coli NEU23, resistance gene oxa-GIII + tem
[22] = P. aeruginosa M7525, resistance gene spm
[23] = P. aeruginosa M7712, resistance gene spm
[24] = P. aeruginosa M7723, resistance gene kpc
[25] = P. aeruginosa M7728, resistance gene imp
[26] = P. aeruginosa M7907, resistance gene per
[27] = S. aureus 28, resistance gene ermA
[28] = S. aureus 33, resistance gene msrA
[29] = S. aureus 204, resistance gene ermA
[30] = S. aureus 239, resistance gene ermC
[31] = S. aureus M2832, resistance gene mecA
[32] = S. aureus M4046, resistance gene mecA
[33] = S. aureus M6784, resistance gene mecA
[34] = A. baumanii FAV-1, resistance gene per + oxa-51 + oxa-58
[35] = A. baumanii M5179, resistance gene oxa-51
[36] = A. baumanii M5277, resistance gene per
[37] = A. baumanii M5282, resistance gene oxa-51
[38] = A. baumanii M5949, resistance gene oxa-23 + oxa-GVI
[39] = A. baumanii M7489, resistance gene oxa-51 + tem
[40] = A. baumanii M7978, resistance gene imp
[41] = A. baumanii M9665, resistance gene oxa-51
[42] = A. baumanii M13523, resistance gene oxa-51
[43] = E. gallinarum M2685, resistance gene vanC1 + vanA
[44] = E. gallinarum M2723, resistance gene vanC1 + vanA

Work on “GLLKKWLKKWKEFKRIVGY-NH2 [peptide 2, GLLKKWLKKWKEFKRIVGY]” yielded an MIC [1, 16] of 32 µg/mL, an MIC [1, 17] of 64 µg/mL and an MIC [1, 18] of 64 µg/mL. The MIC [1, 19] was 4 µg/mL, the MIC [1, 20] was 32 µg/mL and the MIC ([1]; E. coli M9209, resistance gene kpc) was 64 µg/mL. The MIC [1, 21] was 32 µg/mL, the MIC [2, 22] was 64 µg/mL and the MIC [2, 23] was 64 µg/mL. It also gave an MIC [2, 24] of 64 µg/mL, an MIC [2, 25] of 64 µg/mL and an MIC [2, 26] of 64 µg/mL. The MIC [3, 27] was 64 µg/mL, the MIC [3, 28] was 128 µg/mL and the MIC [3, 29] was 64 µg/mL. It also gave an MIC [3, 30] of 64 µg/mL, an MIC ([3]; S. aureus ATCC29213, WT) of 64 µg/mL and an MIC [3, 31] of 128 µg/mL. For the same substance, the MIC [3, 32] was 128 µg/mL, the MIC [3, 33] was 32 µg/mL and the MIC [4, 34] was 16 µg/mL. The MIC [4, 35] was 32 µg/mL, the MIC [4, 36] was 32 µg/mL and the MIC [4, 37] was 8 µg/mL. For the same substance, the MIC [4, 38] was 32 µg/mL, the MIC [4, 39] was 8 µg/mL and the MIC [4, 40] was 16 µg/mL. It also gave an MIC [4, 41] of 4 µg/mL, an MIC [4, 42] of 32 µg/mL and an MIC [5, 43] of 16 µg/mL. For the same substance, the MIC [5, 44] was 32 µg/mL, the MIC [6] was 8 µg/mL and the MIC [7] was 8 µg/mL. The “MIC in agar dilution” value [8] was 128 µg/mL, the “MIC in agar dilution” value [9] was 64 µg/mL and the “MIC in agar dilution” value [10] was >128 µg/mL. The “MIC in agar dilution” value [11] was >128 µg/mL, the “MIC in agar dilution” value [12] was 16 µg/mL and the “MIC in agar dilution” value [13] was 8 µg/mL. For the same substance, the “hemolysis values (in words)” value [14] was “high hemolysis values”.

“RIVQRIKKWLLKWKKLGY-NH2 [peptide 5, RIVQRIKKWLLKWKKLGY]” gave an MIC [1, 16] of 32 µg/mL, an MIC [1, 17] of 64 µg/mL and an MIC [1, 18] of 64 µg/mL. It also gave an MIC [1, 19] of 64 µg/mL, an MIC [1, 20] of 16 µg/mL and an MIC [1, 21] of 32 µg/mL. The MIC [2, 22] was 64 µg/mL, the MIC [2, 23] was 64 µg/mL and the MIC [2, 24] was 32 µg/mL. The MIC [2, 25] was 64 µg/mL, the MIC [2, 26] was 64 µg/mL and the MIC [3, 27] was 64 µg/mL. The MIC [3, 28] was 64 µg/mL, the MIC [3, 29] was 32 µg/mL and the MIC [3, 30] was 64 µg/mL. The MIC ([3]; S. aureus ATCC29213, WT) was 32 µg/mL, the MIC [3, 31] was 64 µg/mL and the MIC [3, 32] was 32 µg/mL. The MIC ([3]; S. aureus M6276, resistance gene ermA + lnuA) was 64 µg/mL, the MIC [3, 33] was 32 µg/mL and the MIC [4, 34] was 16 µg/mL. For the same substance, the MIC [4, 35] was 32 µg/mL, the MIC [4, 36] was 8 µg/mL and the MIC [4, 37] was 8 µg/mL. For the same substance, the MIC [4, 38] was 16 µg/mL, the MIC [4, 39] was 16 µg/mL and the MIC [4, 40] was 8 µg/mL. It also gave an MIC [4, 41] of 32 µg/mL, an MIC [4, 42] of 4 µg/mL and an MIC [5, 43] of 16 µg/mL. For the same substance, the MIC [5, 44] was 16 µg/mL, the MIC [6] was 8 µg/mL and the MIC [7] was 8 µg/mL. The MIC [15] was 8 µg/mL, the “MIC in agar dilution” value [8] was 64 µg/mL and the “MIC in agar dilution” value [9] was >128 µg/mL. The “MIC in agar dilution” value [10] was >128 µg/mL, the “MIC in agar dilution” value [11] was >128 µg/mL and the “MIC in agar dilution” value [12] was 8 µg/mL. For the same substance, the “MIC in agar dilution” value [13] was 8 µg/mL and the “therapeutic index (antimicrobial potency over the cytotoxicity percentage)” value ([14]; in words) was “highest therapeutic index values”.

Source: patent publication US9359409B2, “Antimicrobial peptides, compositions comprising the same and uses thereof” (priority 2012, dated 2016)
